From US20230303561A1, “PYRIMIDINONE DERIVATIVE, PREPARATION METHOD THEREOF AND USE THEREOF IN RESISTING MYCOBACTERIUM TUBERCULOSIS INFECTION” (INSTITUTE OF MEDICINAL BIOTECHNOLOGY, CHINESE ACADEMY OF …, priority 2020, published 2023) come the findings set out here.

≈ marks a conversion by molar mass, not a printed value.

In the first assay the test system is MTB H37Rv. The assay can be described thus: Bacteriostasis experiment: MIC in 96-well plate, two-fold dilution method. It counts as cell-based, Mycobacterium tuberculosis. The following applies: MTB H37Rv, statement on Table 1 data.
For the compound `CCCSc1nc2c(c(=O)[nH]1)C(c1ccc(O)c([N+](=O)[O-])c1)CC(=O)N2` (stereo not shown) [LSL-10-04, 2-propylmercapto-5-(4-hydroxy-3-nitrophenyl)-5,6-dihydropyrido[2,3-d]pyrimidin-4,7(3H,8H)-dione], the “anti-mycobacterium tuberculosis MIC compared with the positive control drug INH” value is recorded as “equivalent to that of the positive control drug INH”.

On to `CCCSc1nc2nccc(-c3ccc(OC)cc3)c2c(=O)[nH]1` [LSL-11-02, 2-propylmercapto-5-(4-methoxyphenyl)-pyrido[2,3-d]pyrimidin-4(3H)-one], for which the “anti-mycobacterium tuberculosis MIC compared with the positive control drug INH” value is listed as “equivalent to that of the positive control drug INH”.

Still in this assay, the particulars now being: Mycobacterium tuberculosis, ATCC 27294 / H37Rv, 240 h, MTB H37Rv (ATCC 27294), 7H9 medium, 37° C., about 10 days; read-out: Inhibitory activity against Mycobacterium tuberculosis, MIC, MTB H37Rv.
In the case of `CCCSc1nc2c(c(=O)[nH]1)C(c1ccccc1OC)CC(=O)N2` (stereo not shown) [LSL-9-48, 2-propylmercapto-5-(2-methoxyphenyl)-5,6-dihydropyrido[2,3-d]pyrimidin-4,7(3H,8H)-dione], the minimum inhibitory concentration (MIC) (as a rule, the least concentration at which growth counts as inhibited) was 16 µg/mL (≈ 46.3 µM).

Take `CCCSc1nc2c(c(=O)[nH]1)C(c1cccc(O)c1)CC(=O)N2` (stereo not shown) [LSL-9-49, 2-propylmercapto-5-(3-hydroxyphenyl)-5,6-dihydropyrido[2,3-d]pyrimidin-4,7(3H,8H)-dione]: the MIC turned out to be 16 µg/mL (≈ 48.3 µM).

On to `CCCSc1nc2c(c(=O)[nH]1)C(c1ccc(C#N)cc1)CC(=O)N2` (stereo not shown) [LSL-10-01, 2-propylmercapto-5-(4-cyanophenyl)-5,6-dihydropyrido[2,3-d]pyrimidin-4,7(3H,8H)-dione], for which the MIC was found to be 16 µg/mL (≈ 47 µM).

Turning to `CCCSc1nc2c(c(=O)[nH]1)C(c1cccc(C#N)c1)CC(=O)N2` (stereo not shown) [LSL-10-02, 2-propylmercapto-5-(3-cyanophenyl)-5,6-dihydropyrido[2,3-d]pyrimidin-4,7(3H,8H)-dione], the minimum inhibitory concentration (MIC) is 6 µg/mL (≈ 17.6 µM).

`CCCSc1nc2c(c(=O)[nH]1)C(c1ccccc1[N+](=O)[O-])CC(=O)N2` (stereo not shown) [LSL-10-03, 2-propylmercapto-5-(2-nitrophenyl)-5,6-dihydropyrido[2,3-d]pyrimidin-4,7(3H,8H)-dione]: the minimal inhibitory concentration (MIC) came out at 8 µg/mL (≈ 22.2 µM).

In the case of `CCCSc1nc2c(c(=O)[nH]1)C(c1ccc(O)c([N+](=O)[O-])c1)CC(=O)N2` (stereo not shown) [LSL-10-04, 2-propylmercapto-5-(4-hydroxy-3-nitrophenyl)-5,6-dihydropyrido[2,3-d]pyrimidin-4,7(3H,8H)-dione], the MIC stood at 0.625 µg/mL (≈ 1.66 µM).

Turning to `CCCSc1nc2c(c(=O)[nH]1)C(c1ccccc1)CC(=O)N2` (stereo not shown) [LSL-10-05, 2-propylmercapto-5-phenyl-5,6-dihydropyrido[2,3-d]pyrimidin-4,7(3H,8H)-dione], the minimal inhibitory concentration (MIC) came out at 8 µg/mL (≈ 25.4 µM).

Regarding `CCCSc1nc2c(c(=O)[nH]1)C(c1ccnc3ccccc13)CC(=O)N2` (stereo not shown) [LSL-10-06, 2-propylmercapto-5-(quinolin-4-yl)-5,6-dihydropyrido[2,3-d]pyrimidin-4,7(3H,8H)-dione], the minimal inhibitory concentration (MIC) is 4 µg/mL (≈ 10.9 µM).

As for `CCCSc1nc2c(c(=O)[nH]1)C(c1cccc3ncccc13)CC(=O)N2` (stereo not shown) [LSL-10-07, 2-propylmercapto-5-(quinolin-5-yl)-5,6-dihydropyrido[2,3-d]pyrimidin-4,7(3H,8H)-dione], the minimal inhibitory concentration (MIC) is 16 µg/mL (≈ 43.7 µM).

Turning to `CCCCSc1nc2c(c(=O)[nH]1)C(c1ccc(OCCC)cc1)CC(=O)N2` (stereo not shown) [LSL-10-23, 2-butylmercapto-5-(4-propoxyphenyl)-5,6-dihydropyrido[2,3-d]pyrimidin-4,7(3H,8H)-dione], the MIC was found to be 16 µg/mL (≈ 41.3 µM).

Turning to `CCCSc1nc2c(c(=O)[nH]1)C(c1ccc(N3CCOCC3)cc1)CC(=O)N2` (stereo not shown) [LSL-10-43, 2-propylmercapto-5-(4-morpholinophenyl)-5,6-dihydropyrido[2,3-d]pyrimidin-4,7(3H,8H)-dione], the minimal inhibitory concentration (MIC) turned out to be 1 µg/mL (≈ 2.5 µM).

As for `CCCSc1nc2c(c(=O)[nH]1)C(c1ccc(N3CCCCC3)cc1)CC(=O)N2` (stereo not shown) [LSL-10-48, 2-propylmercapto-5-(4-(piperidin-1-yl)phenyl)-5,6-dihydropyrido[2,3-d]pyrimidin-4,7(3H,8H)-dione], the MIC was 2 µg/mL (≈ 5.02 µM).

Turning to `CCCSc1nc2c(c(=O)[nH]1)C(c1ccc(N3CCSCC3)cc1)CC(=O)N2` (stereo not shown) [LSL-10-50, 2-propylmercapto-5-(4-thiomorpholinophenyl)-5,6-dihydropyrido[2,3-d]pyrimidin-4,7(3H,8H)-dione], the MIC was 1 µg/mL (≈ 2.4 µM).

Turning to `CCCSc1nc2nccc(-c3ccc(OC)cc3)c2c(=O)[nH]1` [LSL-11-02, 2-propylmercapto-5-(4-methoxyphenyl)-pyrido[2,3-d]pyrimidin-4(3H)-one], the minimal inhibitory concentration (MIC) amounted to 0.5 µg/mL (≈ 1.53 µM).
